In patent publication US12319709B2, “Diaryl trehalose compounds and uses thereof” (THE UNIVERSITY OF MONTANA, priority 2018, dated 2025):

These compounds were tested on peripheral blood mononuclear cells (PBMCs) (assay: IL-6 induction in fresh human PBMCs). Conditions: compounds in DMSO serially diluted in media, supernatants 18 h after treatment; listed as 1014.
Assay type: cell-based
Protocol: Tumor necrosis factor alpha (TNFα) and IL-6 production in peripheral blood mononuclear cells (PBMCs) was measured after exposure to various concentrations of the DAT compounds synthesized as shown above. Initial studies focused on two different methods of delivery of the DAT compounds to PBMC cultures. In the first delivery method, the indicated derivative compound was dissolved in isopropanol, serially diluted, and then dried to the bottom of a tissue culture plate. In the second delivery method, the indicated derivative compound was dissolved in DMSO and serially diluted into tissue culture media. In each method, PBMCs were added to the compounds and incubated at 37° C. TNFα (FIG. 1A) and IL-6 (FIG. 1B) were measured after 18-24 hours after treatment by ELISA assay.
The isolated PBMCs were exposed to increasing concentrations of the indicated compounds resuspended in DMSO and serially diluted in media. IL-6 levels were determined from supernatants eighteen hours after treatment (FIG. 3).

Structure (SMILES) | IL-6 production / activity in fresh PBMCs from multiple donors (in words)
COc1cc(OC)cc(C(=O)OC[C@H]2O[C@H](O[C@H]3O[C@H](COC(=O)c4cc(OC)cc(OC)c4)[C@@H](O)[C@H](O)[C@H]3O)[C@H](O)[C@@H](O)[C@@H]2O)c1 [UM1014] | inactive

Same assay, conditions: human IL-6; NR = no response

Structure (SMILES) | Maximum cytokine response h-IL-6 | Minimal Effective Concentration h-IL-6
O=C(OC[C@H]1O[C@H](O[C@H]2O[C@H](COC(=O)c3cc(C(F)(F)F)cc(C(F)(F)F)c3)[C@@H](O)[C@H](O)[C@H]2O)[C@H](O)[C@@H](O)[C@@H]1O)c1cc(C(F)(F)F)cc(C(F)(F)F)c1 [UM1054] | 1.5 OD | 100 µM
O=C(OC[C@H]1O[C@H](O[C@H]2O[C@H](COC(=O)c3cccc(-c4ccccc4O)c3)[C@@H](O)[C@H](O)[C@H]2O)[C@H](O)[C@@H](O)[C@@H]1O)c1cccc(-c2ccccc2O)c1 [UM1060] | 3.3 OD | 33.3 µM
O=C(OC[C@H]1O[C@H](O[C@H]2O[C@H](COC(=O)c3cccc(C(F)(F)F)c3O)[C@@H](O)[C@H](O)[C@H]2O)[C@H](O)[C@@H](O)[C@@H]1O)c1cccc(C(F)(F)F)c1O [UM1053] | 0.5 OD | 100 µM
Cc1ccc(C)c(C(C)(C)CC(=O)OC[C@H]2O[C@H](O[C@H]3O[C@H](COC(=O)CC(C)(C)c4cc(C)ccc4C)[C@@H](O)[C@H](O)[C@H]3O)[C@H](O)[C@@H](O)[C@@H]2O)c1 [UM1137] | 1 OD | 100 µM
CCOc1cc(C(=O)OC[C@H]2O[C@H](O[C@H]3O[C@H](COC(=O)c4ccc(OCc5ccccc5)c(OCC)c4)[C@@H](O)[C@H](O)[C@H]3O)[C@H](O)[C@@H](O)[C@@H]2O)ccc1OCc1ccccc1 [UM1134] | 0.5 OD | 100 µM
CCCOc1cc(OCCC)cc(C(=O)OC[C@H]2O[C@H](O[C@H]3O[C@H](COC(=O)c4cc(OCCC)cc(OCCC)c4)[C@@H](O)[C@H](O)[C@H]3O)[C@H](O)[C@@H](O)[C@@H]2O)c1 [UM1050] | 3.3 OD | 9 µM
CCOc1cc(C(C)(C)C)ccc1C(=O)OC[C@H]1O[C@H](O[C@H]2O[C@H](COC(=O)c3ccc(C(C)(C)C)cc3OCC)[C@@H](O)[C@H](O)[C@H]2O)[C@H](O)[C@@H](O)[C@@H]1O [UM1132] | 2.6 OD | 100 µM
COc1cc(C(=O)OC[C@H]2O[C@H](O[C@H]3O[C@H](COC(=O)c4cc(OC)c(Br)c(OC)c4)[C@@H](O)[C@H](O)[C@H]3O)[C@H](O)[C@@H](O)[C@@H]2O)cc(OC)c1Br [UM1077] | 2.5 OD | 100 µM

These compounds were tested on RAW264.7 cells (assay: Cytokine (TNFα) response of mouse macrophage cell line; Table 2 'Murine'). Conditions: NR = no response.
Assay type: cell-based
Design: Maximum cytokine response Murine: unit not given here
Protocol: Compounds were also tested in a mouse macrophage cell line (FIG. 4B). RAW264.7 cells were subjected to increasing concentrations of the compounds and assessed for production of the cytokine TNFα.

Structure (SMILES) | Maximum cytokine response Murine | Minimal Effective Concentration Murine
O=C(OC[C@H]1O[C@H](O[C@H]2O[C@H](COC(=O)c3cccc(-c4ccccc4)c3O)[C@@H](O)[C@H](O)[C@H]2O)[C@H](O)[C@@H](O)[C@@H]1O)c1cccc(-c2ccccc2)c1O [UM1063] | 2.5 | 100 µM
O=C(CCc1ccc(O)c(-c2ccccc2)c1)OC[C@H]1O[C@H](O[C@H]2O[C@H](COC(=O)CCc3ccc(O)c(-c4ccccc4)c3)[C@@H](O)[C@H](O)[C@H]2O)[C@H](O)[C@@H](O)[C@@H]1O [UM1064] | 2.5 | 100 µM
O=C(OC[C@H]1O[C@H](O[C@H]2O[C@H](COC(=O)c3cccc(-c4ccccc4)c3)[C@@H](O)[C@H](O)[C@H]2O)[C@H](O)[C@@H](O)[C@@H]1O)c1cccc(-c2ccccc2)c1 [UM1040] | 0.9 | 100 µM
Cc1cccc(C)c1C(=O)OC[C@H]1O[C@H](O[C@H]2O[C@H](COC(=O)c3c(C)cccc3C)[C@@H](O)[C@H](O)[C@H]2O)[C@H](O)[C@@H](O)[C@@H]1O [UM1114] | 11 | 2.5 µM
O=C(OC[C@H]1O[C@H](O[C@H]2O[C@H](COC(=O)c3cccc(-c4cccc(O)c4)c3)[C@@H](O)[C@H](O)[C@H]2O)[C@H](O)[C@@H](O)[C@@H]1O)c1cccc(-c2cccc(O)c2)c1 [UM1057] | 1.8 | 33 µM
O=C(OC[C@H]1O[C@H](O[C@H]2O[C@H](CO)[C@@H](O)[C@H](O)[C@H]2O)[C@H](O)[C@@H](O)[C@@H]1O)c1ccccc1C(F)(F)F [UM1121] | 11 | 2.5 µM
CN(C)c1cccc(C(=O)OC[C@H]2O[C@H](O[C@H]3O[C@H](COC(=O)c4cccc(N(C)C)c4)[C@@H](O)[C@H](O)[C@H]3O)[C@H](O)[C@@H](O)[C@@H]2O)c1 [UM1076] | 1.3 | 3.7 µM
CCc1cc(CC)cc(C(=O)OCC2OC(OC3OC(COC(=O)c4cc(CC)cc(CC)c4)C(O)C(O)C3O)C(O)C(O)C2O)c1 (centres unmarked) [UM1017] | 2.5 | 4.1 µM
COc1ccc(C(=O)OC[C@H]2O[C@H](O[C@H]3O[C@H](COC(=O)c4ccc(OC)cc4C(F)(F)F)[C@@H](O)[C@H](O)[C@H]3O)[C@H](O)[C@@H](O)[C@@H]2O)c(C(F)(F)F)c1 [UM1067] | 1.5 | 100 µM
Cc1cc(C)cc(C(=O)NC[C@H]2O[C@H](O[C@H]3O[C@H](CNC(=O)c4cc(C)cc(C)c4)[C@@H](O)[C@H](O)[C@H]3O)[C@H](O)[C@@H](O)[C@@H]2O)c1 [UM1108] | 33 | 3 µM
CCOc1cc(OCC)cc(C(=O)NC[C@H]2O[C@H](O[C@H]3O[C@H](CNC(=O)c4cc(OCC)cc(OCC)c4)[C@@H](O)[C@H](O)[C@H]3O)[C@H](O)[C@@H](O)[C@@H]2O)c1 [UM1105] | 11 | 3 µM
COc1cccc(C(=O)OC[C@H]2O[C@H](O[C@H]3O[C@H](COC(=O)c4cccc(OC)c4OC)[C@@H](O)[C@H](O)[C@H]3O)[C@H](O)[C@@H](O)[C@@H]2O)c1OC [UM1013] | 3 | 37 µM
Cc1ccc(-c2cccc(C(=O)OC[C@H]3O[C@H](O[C@H]4O[C@H](COC(=O)c5cccc(-c6ccc(C)cc6)c5)[C@@H](O)[C@H](O)[C@H]4O)[C@H](O)[C@@H](O)[C@@H]3O)c2)cc1 [UM1058] | 2.5 | 33 µM
COc1ccc(C(F)(F)F)cc1C(=O)OC[C@H]1O[C@H](O[C@H]2O[C@H](COC(=O)c3cc(C(F)(F)F)ccc3OC)[C@@H](O)[C@H](O)[C@H]2O)[C@H](O)[C@@H](O)[C@@H]1O [UM1045] | 1.3 | 0.05 µM
CC(C)(C)c1ccc(O)c(C(=O)NC[C@H]2O[C@H](O[C@H]3O[C@H](CNC(=O)c4cc(C(C)(C)C)ccc4O)[C@@H](O)[C@H](O)[C@H]3O)[C@H](O)[C@@H](O)[C@@H]2O)c1 [UM1106] | 11 | 3 µM
O=C(OC[C@H]1O[C@H](O[C@H]2O[C@H](COC(=O)c3cc(O)cc(-c4ccccc4)c3)[C@@H](O)[C@H](O)[C@H]2O)[C@H](O)[C@@H](O)[C@@H]1O)c1cc(O)cc(-c2ccccc2)c1 [UM1061] | 3 | 100 µM
CCc1cc(CC)cc(C(=O)NC[C@H]2O[C@H](O[C@H]3O[C@H](CNC(=O)c4cc(CC)cc(CC)c4)[C@@H](O)[C@H](O)[C@H]3O)[C@H](O)[C@@H](O)[C@@H]2O)c1 [UM1109] | 0.4 | 3.2 µM
Cc1cc(C)c(C(=O)OC[C@H]2O[C@H](O[C@H]3O[C@H](COC(=O)c4c(C)cc(C)cc4C)[C@@H](O)[C@H](O)[C@H]3O)[C@H](O)[C@@H](O)[C@@H]2O)c(C)c1 [UM1115] | 11 | 3.3 µM
O=C(OC[C@H]1O[C@H](O[C@H]2O[C@H](COC(=O)c3ccccc3-c3ccccc3)[C@@H](O)[C@H](O)[C@H]2O)[C@H](O)[C@@H](O)[C@@H]1O)c1ccccc1-c1ccccc1 [UM1039] | 0.9 | 33 µM
Cc1cc(C)c(C)c(C(=O)OC[C@H]2O[C@H](O[C@H]3O[C@H](COC(=O)c4c(C)c(C)cc(C)c4C)[C@@H](O)[C@H](O)[C@H]3O)[C@H](O)[C@@H](O)[C@@H]2O)c1C [UM1113] | 11 | 2.5 µM
COc1cc(-c2cccc(C(=O)OC[C@H]3O[C@H](O[C@H]4O[C@H](COC(=O)c5cccc(-c6ccc(F)c(OC)c6)c5)[C@@H](O)[C@H](O)[C@H]4O)[C@H](O)[C@@H](O)[C@@H]3O)c2)ccc1F [UM1059] | 1.8 | 33 µM
O=C(NC[C@H]1O[C@H](O[C@H]2O[C@H](CNC(=O)c3ccccc3C(F)(F)F)[C@@H](O)[C@H](O)[C@H]2O)[C@H](O)[C@@H](O)[C@@H]1O)c1ccccc1C(F)(F)F [UM1112] | 2 | 100 µM
O=C(OC[C@H]1O[C@H](O[C@H]2O[C@H](CO)[C@@H](O)[C@H](O)[C@H]2O)[C@H](O)[C@@H](O)[C@@H]1O)c1ccc([N+](=O)[O-])cc1[N+](=O)[O-] [UM1119] | 11 | 2.2 µM

Same assay, conditions: NR = no response, listed as 1014

Structure (SMILES) | Maximum cytokine response Murine | Minimal Effective Concentration Murine
COc1cc(OC)cc(C(=O)OC[C@H]2O[C@H](O[C@H]3O[C@H](COC(=O)c4cc(OC)cc(OC)c4)[C@@H](O)[C@H](O)[C@H]3O)[C@H](O)[C@@H](O)[C@@H]2O)c1 [UM1014] | 3.3 | 37 µM
